Twelve compounds from patent US20250368666A1, “INDAZOLE COMPOUNDS” (TYRA BIOSCIENCES, INC., priority 2022, published 2025) can be followed below.

A word on the Kd: it is the free concentration of one partner at which half of the binding sites on the other are occupied at equilibrium, for simple one-to-one binding. By IC50 is commonly meant the concentration needed to halve the response being measured. The low end stands for greater potency, the high end for weaker potency.

Structures are written as SMILES.

The target in one assay is T1, FGFR1 (Homo sapiens, UniProt P11362).
T1 construct: made in house; host or cells: E. coli (BL21-derived), T7 phage
Description: Kinase binding assay (kinase-tagged T7 phage, affinity beads, qPCR), Kd. To be noted: read-out: FGFR1 (Kd nM). The procedure, abridged: (§1)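 First, phage lysates carrying tagged kinase are made in E. coli at 32° C. Next, they are combined with blocked biotin-ligand streptavidin beads and compound at 0.9% final DMSO. Finally, eluted kinase is measured by qPCR and Kd is fitted with the Hill equation.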
On the technique in general: Real-time PCR tracks product formation cycle by cycle.

A further assay deals with T2, FGFR2 (Homo sapiens, UniProt P21802).
T2 construct: made in house; host or cells: E. coli (BL21-derived), T7 phage
Described as above. Particulars: read-out: FGFR2 (Kd nM). The procedure, abridged: as §1

In a further assay the target is T3, FGFR3 (Homo sapiens, UniProt P22607).
T3 construct: made in house; host or cells: E. coli (BL21-derived), T7 phage
The assay is described as above. Particulars: read-out: FGFR3 (Kd nM). Summed up:
as §1

A further assay has as its target T4, FGFR3 (V555M) (Homo sapiens, UniProt P22607, V555M).
T4 construct: made in house; host or cells: E. coli (BL21-derived), T7 phage
Described as above. To be noted: V555M mutant; read-out: FGFR3 (V555M) (Kd nM). Summed up:
as §1

The next assay concerns the target T5, FGFR4 (Homo sapiens, UniProt P22455).
T5 construct: made in house; host or cells: E. coli (BL21-derived), T7 phage
The assay is described as above. Particulars: read-out: FGFR4 (Kd nM). Summed up: as §1

Assay [1] concerns KATO-III cell line (FGFR2 amplification). Description: Cancer cell line cell viability assay (Cell Titer-Glo), 72 hr. It counts as cell-based. Particulars: Homo sapiens, KATO III. The procedure, abridged:
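Cells seeded at 5,000-20,000/well, incubated overnight, then treated with a 9-dose, 4-fold dilution series from 3 μM in triplicate at 37° C, 5% CO2. Viability read by Cell Titer-Glo 2.0 luminescence as percent of DMSO control; IC50 from 4-parameter variable-slope sigmoidal fit.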
In general terms: In ATP-based viability assays light output follows the ATP content of the culture.

Assay [2] deals with KG-1 cell line (FGFR 1-fusion). The description is as above. It counts as cell-based. Particulars: Homo sapiens, KG-1, KG-1 cell line (FGFR1-fusion). The procedure, abridged: (§2)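 Cells were seeded at 5,000–20,000 per well, then exposed to a 9-point, 4-fold dilution series from 3 μM top concentration in triplicate at 37° C. Exposure was 120 h for MDA-MB-453 and HuH7 and 72 h for KG-1 and RT112/84. Viability was read as ATP by Cell Titer-Glo 2.0, expressed as % of DMSO control, and fitted by 4-parameter IC50.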

Assay [3] deals with RT112/84 cell line (FGFR3-fusion). The description is as above. It counts as cell-based. To be noted: Homo sapiens, RT112/84, RT112/84 cell line (FGFR3-fusion). The procedure, abridged: as §2
Assay [4] deals with HuH7 cell line (FGF19 amplification). Nature of the assay: Cancer cell line cell viability assay (Cell Titer-Glo), 120 hr. It counts as cell-based. Particulars: Homo sapiens, Huh-7. The procedure, abridged: as §2

T1 sequence (P11362 22-822): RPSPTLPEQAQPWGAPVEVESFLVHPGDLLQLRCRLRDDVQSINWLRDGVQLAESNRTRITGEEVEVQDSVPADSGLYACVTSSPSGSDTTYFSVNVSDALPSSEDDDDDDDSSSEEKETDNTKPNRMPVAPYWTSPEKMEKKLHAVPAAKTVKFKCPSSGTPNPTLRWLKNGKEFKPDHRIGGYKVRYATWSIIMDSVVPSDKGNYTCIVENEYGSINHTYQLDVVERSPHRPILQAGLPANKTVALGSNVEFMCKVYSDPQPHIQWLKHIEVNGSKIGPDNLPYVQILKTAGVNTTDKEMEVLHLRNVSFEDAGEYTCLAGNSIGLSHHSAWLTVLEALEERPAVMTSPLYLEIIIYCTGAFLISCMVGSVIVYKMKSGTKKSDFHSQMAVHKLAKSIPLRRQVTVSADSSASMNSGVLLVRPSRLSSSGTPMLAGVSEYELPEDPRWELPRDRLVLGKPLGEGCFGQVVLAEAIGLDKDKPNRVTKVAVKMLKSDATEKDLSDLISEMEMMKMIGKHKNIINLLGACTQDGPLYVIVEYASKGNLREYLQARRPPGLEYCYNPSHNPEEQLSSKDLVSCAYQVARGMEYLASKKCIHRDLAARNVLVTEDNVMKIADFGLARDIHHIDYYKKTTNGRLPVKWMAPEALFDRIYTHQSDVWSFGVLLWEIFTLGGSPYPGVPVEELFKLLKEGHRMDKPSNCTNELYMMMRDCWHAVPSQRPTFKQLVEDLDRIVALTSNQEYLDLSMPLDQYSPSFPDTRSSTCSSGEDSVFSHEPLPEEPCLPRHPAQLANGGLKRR
T3 sequence (P22607 23-806): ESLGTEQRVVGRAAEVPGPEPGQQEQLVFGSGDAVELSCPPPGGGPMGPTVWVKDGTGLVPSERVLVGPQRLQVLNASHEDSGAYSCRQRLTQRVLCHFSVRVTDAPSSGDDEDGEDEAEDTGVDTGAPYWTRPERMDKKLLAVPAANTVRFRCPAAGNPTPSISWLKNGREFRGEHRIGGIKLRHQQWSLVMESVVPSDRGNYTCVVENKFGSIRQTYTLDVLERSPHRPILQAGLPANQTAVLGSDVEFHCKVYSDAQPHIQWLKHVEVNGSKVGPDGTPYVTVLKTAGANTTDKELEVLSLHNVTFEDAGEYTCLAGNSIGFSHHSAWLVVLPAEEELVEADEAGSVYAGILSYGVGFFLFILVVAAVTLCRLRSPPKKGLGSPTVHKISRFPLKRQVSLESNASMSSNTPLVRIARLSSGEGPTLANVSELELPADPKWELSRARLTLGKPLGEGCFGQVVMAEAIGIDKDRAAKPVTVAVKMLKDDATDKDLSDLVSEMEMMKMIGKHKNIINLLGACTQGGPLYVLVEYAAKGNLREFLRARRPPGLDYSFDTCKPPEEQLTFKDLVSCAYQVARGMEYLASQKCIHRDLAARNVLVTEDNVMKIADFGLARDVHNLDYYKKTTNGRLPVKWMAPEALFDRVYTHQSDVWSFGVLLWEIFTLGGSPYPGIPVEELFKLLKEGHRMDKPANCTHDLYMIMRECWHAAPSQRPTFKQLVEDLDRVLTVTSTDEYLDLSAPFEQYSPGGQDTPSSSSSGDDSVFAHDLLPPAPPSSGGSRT
T2 sequence (P21802 22-821): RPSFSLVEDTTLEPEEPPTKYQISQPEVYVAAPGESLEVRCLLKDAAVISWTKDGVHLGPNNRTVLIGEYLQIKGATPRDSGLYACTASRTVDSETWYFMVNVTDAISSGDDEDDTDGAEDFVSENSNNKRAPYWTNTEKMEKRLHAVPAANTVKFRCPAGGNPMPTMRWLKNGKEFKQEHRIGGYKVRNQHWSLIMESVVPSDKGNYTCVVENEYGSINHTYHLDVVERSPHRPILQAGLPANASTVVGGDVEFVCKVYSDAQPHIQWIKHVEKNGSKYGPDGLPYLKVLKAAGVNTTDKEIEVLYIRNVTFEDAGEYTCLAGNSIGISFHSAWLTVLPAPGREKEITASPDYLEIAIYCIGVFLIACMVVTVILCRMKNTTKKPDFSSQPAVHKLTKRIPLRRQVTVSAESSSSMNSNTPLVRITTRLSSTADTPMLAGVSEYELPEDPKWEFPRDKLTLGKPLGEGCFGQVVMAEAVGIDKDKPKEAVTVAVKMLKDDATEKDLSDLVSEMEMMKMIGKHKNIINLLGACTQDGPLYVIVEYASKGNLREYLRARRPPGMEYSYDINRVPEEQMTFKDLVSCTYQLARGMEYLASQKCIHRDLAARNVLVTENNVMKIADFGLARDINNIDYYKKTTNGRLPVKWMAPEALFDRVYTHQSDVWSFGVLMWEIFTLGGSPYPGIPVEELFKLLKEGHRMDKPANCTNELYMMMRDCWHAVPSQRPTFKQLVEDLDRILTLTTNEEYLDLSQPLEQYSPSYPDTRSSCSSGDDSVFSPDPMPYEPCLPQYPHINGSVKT
T4 sequence (P22607 23-806 V555M): as the sequence (P22607 23-806) above, with V533M counted along it
T5 sequence (P22455 22-802): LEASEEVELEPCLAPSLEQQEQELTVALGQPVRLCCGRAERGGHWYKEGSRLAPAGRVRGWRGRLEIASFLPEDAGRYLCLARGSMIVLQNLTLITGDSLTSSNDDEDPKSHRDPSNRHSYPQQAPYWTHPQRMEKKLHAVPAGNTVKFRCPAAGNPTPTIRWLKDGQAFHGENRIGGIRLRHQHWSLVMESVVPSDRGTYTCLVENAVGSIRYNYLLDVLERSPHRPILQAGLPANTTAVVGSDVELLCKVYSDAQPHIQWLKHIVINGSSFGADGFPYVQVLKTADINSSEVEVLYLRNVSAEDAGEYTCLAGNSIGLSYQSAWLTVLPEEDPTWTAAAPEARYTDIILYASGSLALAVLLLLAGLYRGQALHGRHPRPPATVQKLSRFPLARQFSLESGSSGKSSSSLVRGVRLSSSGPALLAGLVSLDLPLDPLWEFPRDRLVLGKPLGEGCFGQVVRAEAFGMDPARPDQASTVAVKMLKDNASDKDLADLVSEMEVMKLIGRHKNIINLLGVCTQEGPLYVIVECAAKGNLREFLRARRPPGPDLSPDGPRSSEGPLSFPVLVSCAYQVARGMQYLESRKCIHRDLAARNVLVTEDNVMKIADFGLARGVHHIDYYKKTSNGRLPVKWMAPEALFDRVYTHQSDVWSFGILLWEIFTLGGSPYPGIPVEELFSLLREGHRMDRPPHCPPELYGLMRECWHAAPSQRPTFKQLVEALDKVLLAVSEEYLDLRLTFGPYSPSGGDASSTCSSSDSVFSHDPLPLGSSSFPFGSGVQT

Consider `COc1cc2[nH]nc(-c3cnc(N4CC(C)(N5CCCC5)C4)c(C#N)c3)c2cc1O[C@H](C)c1c(Cl)cncc1Cl` [Example 15, 5-[5-[(1R)-1-(3,5-dichloro-4-pyridyl)ethoxy]-6-methoxy-1H-indazol-3-yl]-2-(3-methyl-3-pyrrolidin-1-yl-azetidin-1-yl)pyridine-3-carbonitrile], for which the Kd on FGFR1, at FGFR2, on FGFR3, at FGFR3 (V555M) and on FGFR4 was 1 to 50 nM in each case. The IC50 fell in the range of 50 to 200 nM in assay [1], 50 to 200 nM in assay [2], 0.1 to 50 nM in assay [3] and 0.1 to 50 nM in [4].

For the compound `C[C@@H](Oc1ccc2[nH]nc(-c3cnc(N4CC(C)(NC5COC5)C4)c(C#N)c3)c2c1)c1c(Cl)cncc1Cl` [Example 4, (R)-5-(5-(1-(3,5-dichloropyridin-4-yl)ethoxy)-1H-indazol-3-yl)-2-(3-methyl-3-(oxetan-3-ylamino)azetidin-1-yl)nicotinonitrile], the Kd was 50 to 300 nM at FGFR1; 50 to 300 nM at FGFR2; 1 to 50 nM on FGFR3; 1 to 50 nM on FGFR3 (V555M); 1 to 50 nM at FGFR4. In addition, the IC50 was in the range of 200 to 1000 nM in assay [1], 200 to 1000 nM in assay [2], 50 to 200 nM in assay [3] and 0.1 to 50 nM in assay [4].

Turning to `C[C@@H](Oc1ccc2[nH]nc(-c3cnc(N4CC(C)(N5CCS(=O)(=O)CC5)C4)c(C#N)c3)c2c1)c1c(Cl)cncc1Cl` [Example 321, (R)-5-(5-(1-(3,5-dichloropyridin-4-yl)ethoxy)-1H-indazol-3-yl)-2-(3-(1,1-dioxidothio-morpholino)-3-methylazetidin-1-yl)nicotinonitrile], the dissociation constant Kd on FGFR1, at FGFR2, at FGFR3, on FGFR3 (V555M) and at FGFR4 was 1 to 50 nM throughout. Also, the IC50 in assay [1] was 200 to 1000 nM; in [2], 200 to 1000 nM; in assay [3] it was 50 to 200 nM; in assay [4], 0.1 to 50 nM.

Regarding `COc1cc2[nH]nc(-c3cnc(N4CC(C)(CN(C)C)C4)c(C#N)c3)c2cc1O[C@H](C)c1c(Cl)cncc1Cl` [Example 49, (R)-5-(5-(1-(3,5-dichloropyridin-4-yl)ethoxy)-6-methoxy-1H-indazol-3-yl)-2-(3-((dimethylamino)methyl)-3-methylazetidin-1-yl)nicotinonitrile], the Kd at FGFR1, on FGFR2, at FGFR3, at FGFR3 (V555M) and at FGFR4 was 1 to 50 nM throughout. Further, the IC50 in [1], in assay [2], in assay [3] and in [4] was 0.1 to 50 nM throughout.

Turning to `COc1cc2[nH]nc(-c3cnc(N4CC(C)(N5CCC5)C4)c(C#N)c3)c2cc1O[C@H](C)c1c(Cl)cncc1Cl` [Example 26, (R)-5-(5-(1-(3,5-dichloropyridin-4-yl)ethoxy)-6-methoxy-1H-indazol-3-yl)-2-(3′-methyl-[1,3′-biazetidin]-1′-yl)nicotinonitrile], the Kd on FGFR1, at FGFR2, at FGFR3, at FGFR3 (V555M) and on FGFR4 was 1 to 50 nM throughout. In addition, the IC50 in [1] lay within 50 to 200 nM; in assay [2] it was 0.1 to 50 nM; in assay [3], 0.1 to 50 nM; in [4], 0.1 to 50 nM.

Consider `COCCNC1(C)CN(c2ncc(-c3n[nH]c4ccc(O[C@H](C)c5c(Cl)cncc5Cl)cc34)cc2C#N)C1` [Example 88, (R)-5-(5-(1-(3,5-dichloropyridin-4-yl)ethoxy)-1H-indazol-3-yl)-2-(3-((2-methoxyethyl)amino)-3-methylazetidin-1-yl)nicotinonitrile], for which the dissociation constant (Kd) at FGFR1 lay in the range of 1 to 50 nM; at FGFR2, 50 to 300 nM; on FGFR3, 1 to 50 nM; at FGFR3 (V555M) it was 1 to 50 nM; on FGFR4, 1 to 50 nM. For the same compound, the IC50 in [1] lay within 50 to 200 nM; in [2], 200 to 1000 nM; in assay [3], 50 to 200 nM; in assay [4] it was 0.1 to 50 nM.

With `C[C@@H](Oc1cc2c(-c3cnc(N4CC(C)(NCC5CC5)C4)c(C#N)c3)n[nH]c2cc1F)c1c(Cl)cncc1Cl` [Example 134, (R)-2-(3-((cyclopropylmethyl)a-mino)-3-methylazetidin-1-yl)-5-(5-(1-(3,5-dichloropyridin-4-yl)ethoxy)-6-fluoro-1H-indazol-3-yl)nicotinonitrile], the Kd on FGFR1 is 50 to 300 nM; at FGFR2, 50 to 300 nM; on FGFR3, 1 to 50 nM; on FGFR3 (V555M), 1 to 50 nM; on FGFR4 it was 1 to 50 nM. In addition, the IC50 lay in the range of 200 to 1000 nM in assay [1], 200 to 1000 nM in assay [2], 50 to 200 nM in assay [3] and 50 to 200 nM in assay [4].

Consider `COC1(C)CN(C2(C)CN(c3ncc(-c4n[nH]c5ccc(O[C@H](C)c6c(Cl)cncc6Cl)cc45)cc3C#N)C2)C1` [Example 102, (R)-5-(5-(1-(3,5-dichloropyridin-4-yl)ethoxy)-1H-indazol-3-yl)-2-(3-methoxy-3,3′-dimethyl-[1,3′-biazetidin]-1′-yl)nicotinonitrile], for which the Kd at FGFR1, at FGFR2, on FGFR3, on FGFR3 (V555M) and at FGFR4 was 1 to 50 nM in each case. Further, the IC50 in [1] lay within 200 to 1000 nM; in assay [2] it was 200 to 1000 nM; in assay [3] it was 50 to 200 nM; in [4], 0.1 to 50 nM.

`COc1cc2[nH]nc(-c3cnc(N4CC(C)(NCC(F)F)C4)c(C#N)c3)c2cc1O[C@H](C)c1c(Cl)cncc1Cl` [Example 42, 5-[5-[(1R)-1-(3,5-dichloro-4-pyridyl)ethoxy]-6-methoxy-1H-indazol-3-yl]-2-[3-(2,2-difluoroethylamino)-3-methyl-azetidin-1-yl]pyridine-3-carbonitrile]: the Kd at FGFR1, on FGFR2, at FGFR3, at FGFR3 (V555M) and at FGFR4 was 1 to 50 nM each time. In addition, the IC50 in [1] lay in the range of 50 to 200 nM; in [2], 50 to 200 nM; in [3], 0.1 to 50 nM; in [4] it was 0.1 to 50 nM.

As for `CC[C@H](C)NC1(C)CN(c2ncc(-c3n[nH]c4cc(OC)c(O[C@H](C)c5c(Cl)cncc5Cl)cc34)cc2C#N)C1` [Example 144, 5-[5-[(1R)-1-(3,5-dichloro-4-pyridyl)ethoxy]-6-methoxy-1H-indazol-3-yl]-2-[3-methyl-3-[[(1S)-1-methylpropyl]amino]aze-tidin-1-yl]pyridine-3-carbonitrile], the Kd at FGFR1, at FGFR2, on FGFR3, on FGFR3 (V555M) and at FGFR4 was 1 to 50 nM throughout. The IC50 in [1] fell in the range of 50 to 200 nM; in assay [2], 50 to 200 nM; in assay [3] it was 0.1 to 50 nM; in assay [4] it was 0.1 to 50 nM.

Consider `COc1cc2[nH]nc(-c3cnc(N4CC(C)(NCC5CC5)C4)nc3)c2cc1O[C@H](C)c1c(Cl)cncc1Cl` [Example 339, (R)-N-(cyclopropyl-methyl)-1-(5-(5-(1-(3,5-dichloropyridin-4-yl)ethoxy)-6-methoxy-1H-indazol-3-yl)pyrimidin-2-yl)-3-methylazetidin-3-amine], for which the Kd at FGFR1, on FGFR2, at FGFR3, at FGFR3 (V555M) and at FGFR4 was 1 to 50 nM in each case. In addition, the IC50 in assay [1], in assay [2], in [3] and in [4] was 0.1 to 50 nM in each case.

On to `C[C@@H](Oc1ccc2[nH]nc(-c3cnc(N4CC(C)(N(C)C)C4)nc3)c2c1)c1c(Cl)cncc1Cl` [Example 44, (R)-1-(5-(5-(1-(3,5-dichloropyridin-4-yl)ethoxy)-1H-indazol-3-yl)pyrimidin-2-yl)-N,N,3-trimethylazetidin-3-amine], for which the Kd on FGFR1, at FGFR2, on FGFR3, at FGFR3 (V555M) and at FGFR4 was 1 to 50 nM throughout. The IC50 in assay [1] lay in the range of 50 to 200 nM; in [2] it was 50 to 200 nM; in [3], 0.1 to 50 nM; in assay [4], 0.1 to 50 nM.
